Results taken from US20170349532A1, “CATIONIC LIPID” (Kyowa Hakko Kirin Co., Ltd., priority 2011, published 2017).

test: Average particle diameter of preparation (Zetasizer Nano ZS); format: physicochemical; details: average particle diameter of cationic lipid/nucleic acid complex; Example 118 preparation: compound/PEG-DMPE Na/DSPC/cholesterol with apo-b siRNA
Description: Preparations were produced using the compounds obtained in Examples 1 to 117, as follows.
APO-B siRNA was used as the nucleic acid. APO-B siRNA suppresses expression of an apolipoprotein-B (hereinafter, “apo-b”) gene and has a sense strand with the base sequence 5′-GmUCAmUCACACmUGAAmUACCAAmU-3′ (the sugars attached to the bases appended with m are 2′-O-methyl-substituted riboses), and an antisense strand with the base sequence 5′-[…]-3′ (the 5′-end is phosphorylated). The sense strand and the antisense strand were obtained from Nippon EGT, GeneDesign, Inc., Invitrogen or Hokkaido System Science Co., Ltd., and annealed to prepare the nucleic acid (hereinafter, “apo-b siRNA”).
A solution comprising the constituent components was prepared by dissolving each of the weighed samples in 90 vol % ethanol in 8.947/1.059/5.708/13.697 mmol/L [compounds 1 to 117 obtained in Examples 1 to 117/sodium 1,2-dimyristoyl-sn-glycero-3-phosphoethanolamine-N-(methoxy(polyethylene glycol)-2000) (PEG-DMPE Na,N-(carbonylmethoxypolyethylene glycol 2000)-1,2-dimyristoyl-sn-glycero-3-phosphoethanolamine sodium salt, NOF Corporation)/distearoylphosphatidyl choline (DSPC, 1,2-distearoyl-sn-glycero-3-phosphocholine, NOF Corporation)/cholesterol (Avanti Polar Lipids)]. Separately, apo-b siRNA/distilled water (24 mg/mL) was diluted with a Tris-EDTA buffer (200 mM Tris-HCl, 20 mM EDTA, Invitrogen) and a 20 mM citric acid buffer (pH 5.0) to prepare a 1.5 mg/mL apo-b siRNA aqueous solution (2 mM Tris-EDTA/20 mM citric acid buffer, pH 5.0).
The resulting lipid solution was heated to 37° C., and a 100-μL portion was transferred to a preparation container. The apo-b siRNA aqueous solution (100 μL) was then added thereto while being stirred. Then, a 20 mM citric acid buffer (containing 300 mM NaCl, pH 6.0; 200 μL) was added to the lipid nucleic acid mixed suspension (200 μL) while being stirred. The siRNA concentration was brought to 10 μM by dropping a Dulbecco phosphate buffer (DPBS, Invitrogen; 662 μL), and preparations (compositions comprising compounds 1 to 117 and the nucleic acid) were obtained.
The average particle diameter of the complex between the cationic lipis and the nucleic acid in each preparation was measured with a particle diameter measurement device (Malvern; Zetasizer Nano ZS).

| Particle diameter of Preparetion | SMILES |
| --- | --- |
| 131.3 nm | CCCCCCCC/C=C\CCCCCCCCCCO[C@@H]1CNC[C@H]1OCCCCCCCCCC/C=C\CCCCCCCC [Compound 42, (3R,4R)-3,4-bis((Z)-Icos-11-enyloxy)pyrrolidine] |
| 136.3 nm | CCCCCCCCCCCCCCCCO[C@@H]1CN(C)C[C@H]1OCCCCCCCCCCCCCCCC [Compound 45, (3R,4R)-3,4-bis(Hexadecyloxy)-1-methylpyrrolidine] |
| 192.0 nm | CCCCCCCCCCCCCCCCCCO[C@@H]1CN(C)C[C@H]1OCCCCCCCCCCCCCCCCCC [Compound 46, (3R,4R)-1-Methyl-3,4-bis(octadecyloxy)pyrrolidine] |
| 125.8 nm | CCCC/C=C\CCCCCCCCO[C@@H]1CN(C)C[C@H]1OCCCCCCCC/C=C\CCCC [Compound 47, (3R,4R)-1-Methyl-3,4-bis((Z)-tetradec-9-enyloxy)pyrrolidine] |
| 135.0 nm | CCCCCC/C=C\CCCCCCCCCCO[C@@H]1CN(C)C[C@H]1OCCCCCCCCCC/C=C\CCCCCC [Compound 48, (3R,4R)-1-Methyl-3,4-bis((Z)-octadec-11-enyloxy)pyrrolidine] |
| 141.7 nm | CCCCCCCC/C=C\CCCCCCCCCCO[C@@H]1CN(C)C[C@H]1OCCCCCCCCCC/C=C\CCCCCCCC [Compound 49, (3R,4R)-3,4-bis((Z)-Icos-11-enyloxy)-1-methylpyrrolidine] |
| 120.3 nm | CCCCC/C=C\C/C=C\CCCCCCCCO[C@@H]1CN(CCCO)C[C@H]1OCCCCCCCC/C=C\C/C=C\CCCCC [Compound 56, 3-((3R,4R)-3,4-bis((9Z,12Z)-Octadec-9,12-dienyloxy)pyrrolidin-1-yl)propan-1-ol] |
| 116.7 nm | CCCCC/C=C\C/C=C\CCCCCCCCO[C@@H]1CN(CCCN(C)C)C[C@H]1OCCCCCCCC/C=C\C/C=C\CCCCC [Compound 59, (3R,4R)-1-(3-N,N-Dimethylaminopropyl)-3,4-bis((9Z,12Z)-octadec-9,12-dienyloxy)pyrrolidine] |
| 146.0 nm | CCCCC/C=C\C/C=C\CCCCCCCCO[C@@H]1CN(C(=O)CCCCCN)C[C@H]1OCCCCCCCC/C=C\C/C=C\CCCCC [Compound 64, (3R,4R)-1-(6-Aminohexanoyl)-3,4-bis((9Z,12Z)-octadec-9,12-dienyloxy)pyrrolidine] |
| 127.6 nm | CCCCCCCC/C=C\CCCCCCCCOCCNCCOCCCCCCCC/C=C\CCCCCCCC [Compound 67, bis(2-((Z)-Octadec-9-enyloxy)ethyl)amine] |
| 119.7 nm | CCCCCC/C=C\CCCCCCCCCCOCCN(C)CCOCCCCCCCCCC/C=C\CCCCCC [Compound 77, N-Methyl-N,N-bis(2-((Z)-octadec-11-enyloxy)ethyl)amine] |
| 131.4 nm | CCCCCCCC/C=C\CCCCCCCCCCOCCN(C)CCOCCCCCCCCCC/C=C\CCCCCCCC [Compound 78, N,N-bis(2-((Z)-Icos-11-enyloxy)ethyl)-N-methylamine] |

The next lines start with the molecule.

| SMILES | Particle diameter of Preparetion |
| --- | --- |
| CCCCC/C=C\C/C=C\CCCCCCCCO[C@H]1C[N+](C)(C)C[C@@H]1OCCCCCCCC/C=C\C/C=C\CCCCC [Compound 52, (3S,4S)-1,1-Dimethyl-3,4-bis((9Z,12Z)-octadec-9,12-dienyloxy)pyrrolidinium chloride] | 118.9 nm |
| CCCCC/C=C\C/C=C\CCCCCCCC(=O)O[C@@H]1CN(CC(O)CO)C[C@H]1OC(=O)CCCCCCC/C=C\C/C=C\CCCCC (stereo partly drawn) [Compound 53, (3R,4R)-1-(2,3-dihydroxypropyl)pyrrolidine-3,4-diyl di((9Z,12Z)-octadec-9,12-enoate)] | 152.4 nm |
| CCCCC/C=C\C/C=C\CCCCCCCCO[C@@H]1CN(CC(C)O)C[C@H]1OCCCCCCCC/C=C\C/C=C\CCCCC (stereo partly drawn) [Compound 54, 1-((3R,4R)-3,4-bis((9Z,12Z)-Octadec-9,12-dienyloxy)pyrrolidine-1-yl)propan-2-ol] | 148.9 nm |
| CCCCC/C=C\C/C=C\CCCCCCCCO[C@@H]1CN(CC(O)COC)C[C@H]1OCCCCCCCC/C=C\C/C=C\CCCCC (stereo partly drawn) [Compound 55, 1-(3R,4R)-3,4-bis(((9Z,12Z)-Octadec-9,12-dienyloxy)pyrrolidine-1-yl)-3-methoxypropan-2-ol] | 139.6 nm |
| CCCCC/C=C\C/C=C\CCCCCCCCO[C@@H]1CN(CCC(N)=O)C[C@H]1OCCCCCCCC/C=C\C/C=C\CCCCC [Compound 57, 3-((3R,4R)-3,4-bis((9Z,12Z)-Octadec-9,12-dienyloxy)pyrrolidin-1-yl)propanamide] | 159.2 nm |
| CCCCC/C=C\C/C=C\CCCCCCCCO[C@@H]1CN(CCC(=O)N(C)C)C[C@H]1OCCCCCCCC/C=C\C/C=C\CCCCC [Compound 58, 3-((3R,4R)-3,4-bis((9Z,12Z)-Octadec-9,12-dienyloxy)pyrrolidin-1-yl)-N,N-dimethylpropanamide] | 151.8 nm |
| CCCCC/C=C\C/C=C\CCCCCCCCO[C@@H]1CN(C2CCN(C)CC2)C[C@H]1OCCCCCCCC/C=C\C/C=C\CCCCC [Compound 60, 4-((3R,4R)-3,4-bis((9Z,12Z)-Octadec-9,12-dienyloxy)pyrrolidin-1-yl)-1-methylpiperidine] | 125.3 nm |
| CCCCC/C=C\C/C=C\CCCCCCCCO[C@@H]1CN(C(=O)CN)C[C@H]1OCCCCCCCC/C=C\C/C=C\CCCCC [Compound 61, (3R,4R)-1-(2-Aminoacetyl)-3,4-bis((9Z,12Z)-octadec-9,12-dienyloxy)pyrrolidine] | 125.9 nm |
| CCCCC/C=C\C/C=C\CCCCCCCCO[C@@H]1CN(C(=O)CCN)C[C@H]1OCCCCCCCC/C=C\C/C=C\CCCCC [Compound 62, (3R,4R)-1-(3-Aminopropanoyl)-3,4-bis((9Z,12Z)-octadec-9,12-dienyloxy)pyrrolidine] | 151.3 nm |
| CCCCC/C=C\C/C=C\CCCCCCCCO[C@@H]1CN(C(=O)[C@@H](N)CCCN)C[C@H]1OCCCCCCCC/C=C\C/C=C\CCCCC [Compound 63, (3R,4R)-1-((S)-2,5-Diaminopentanoyl)-3,4-bis((9Z,12Z)-octadec-9,12-dienyloxy)pyrrolidine] | 143.0 nm |
| CCCCC/C=C\C/C=C\CCCCCCCC(=O)O[C@@H]1CN(C(=O)CN)C[C@H]1OC(=O)CCCCCCC/C=C\C/C=C\CCCCC [Compound 65, (3R,4R)-1-(2-aminoacetyl)pyrrolidine-3,4-diyl di((9Z,12Z)-octadec-9,12-enoate)] | 128.9 nm |
| CCCCC/C=C\C/C=C\CCCCCCCC(=O)O[C@@H]1CN(C(=O)[C@@H](N)CCCCN)C[C@H]1OC(=O)CCCCCCC/C=C\C/C=C\CCCCC [Compound 66, (3R,4R)-1-((S)-2,6-Diaminohexanoyl)pyrrolidine-3,4-diyl di((9Z,12Z)-octadec-9,12-enoate)] | 137.4 nm |
| CCCC/C=C\CCCCCCCCOCCNCCOCCCCCCCC/C=C\CCCC [Compound 68, bis(2-((Z)-Tetradec-9-enyloxy)ethyl)amine] | 132.4 nm |
| CCCCCCCCCCCCCCOCCNCCOCCCCCCCCCCCCCC [Compound 69, bis(2-(Tetradecyloxy)ethyl)amine] | 136.8 nm |
| CCCCCCCCCCCCCCCCOCCNCCOCCCCCCCCCCCCCCCC [Compound 70, bis(2-(Hexadecyloxy)ethyl)amine] | 145.6 nm |
| CCCCCCCCCCCCCCCCCCOCCNCCOCCCCCCCCCCCCCCCCCC [Compound 71, bis(2-(Octadecyloxy)ethyl)amine] | 148.4 nm |
| CCCCCC/C=C\CCCCCCCCOCCNCCOCCCCCCCC/C=C\CCCCCC [Compound 72, bis(2-((Z)-Hexadec-9-enyloxy)ethyl)amine] | 130.6 nm |
| CCCCCCCC/C=C\CCCCCCCC(=O)OCCNCCOC(=O)CCCCCCC/C=C\CCCCCCCC [Compound 73, N,N-bis(2-((Z)-Octadec-9-enoyloxy)ethyl)amine] | 146.8 nm |
| CCCCC/C=C\C/C=C\CCCCCCCC(=O)OCCNCCOC(=O)CCCCCCC/C=C\C/C=C\CCCCC [Compound 74, N,N-bis(2-((9Z,12Z)-Octadec-9,12-dienoyloxy)ethyl)amine] | 128.4 nm |
| CCCC/C=C\CCCCCCCCOCCN(C)CCOCCCCCCCC/C=C\CCCC [Compound 75, N-Methyl-N,N-bis(2-((Z)-Tetradec-9-enyloxy)ethyl)amine] | 124.0 nm |
| CCCCCCCCCCCCCCCCOCCN(C)CCOCCCCCCCCCCCCCCCC [Compound 76, N,N-bis(2-(Hexadecyloxy)ethyl)-N-methylamine] | 133.6 nm |
